Results: patent publication US10392391B2 (Vertex Pharmaceuticals Incorporated, priority 2012, dated 2019)
Like-named read-outs stand apart in the source and are kept apart here.

Tests used:
[1] = biological target: ATR kinase, in the presence of partner proteins ATRIP, CLK2 and TopBP1 (Homo sapiens (Human), UniProt Q13535); assay: ATR-complex inhibition assay (radioactive-phosphate incorporation); format: biochemical; details: Ki(app); 4 nM full-length ATR, 40 nM ATRIP, 40 nM CLK2, 600 nM TopBP1; 10 μM ATP; 25° C.
Procedure: Compounds were screened for their ability to inhibit ATR kinase, in the presence of partner proteins ATRIP, CLK2 and TopBP1, using a radioactive-phosphate incorporation assay. Assays were carried out in a mixture of 50 mM Tris/HCl (pH 7.5), 10 mM MgCl2 and 1 mM DTT. Final substrate concentrations were 10 μM [g-33P]ATP (3.5 μCi 33P ATP/nmol ATP, Perkin Elmer, Massachusetts, USA) and 800 μM target peptide ([…]) (SEQ ID NO: 1); Isca Biochemicals, Cambridgeshire, UK).
Assays were carried out at 25° C. in the presence of 4 nM full-length ATR, 40 nM full-length ATRIP, 40 nM full-length CLK2 and 600 nM TopBP1 (A891-S1105). An enzyme stock buffer solution was prepared containing all of the reagents listed above, with the exception of target peptide, ATP and the test compound of interest. This enzyme stock was pre-incubated for 30 minutes at 25° C. 8.5 μL of the enzyme stock solution was placed in a 96-well plate followed by addition of 5 μl of target peptide and 2 μL of DMSO stock containing serial dilutions of the test compound (typically starting from a final concentration of 1.5 μM with 2.5-fold serial dilutions) in duplicate (final DMSO concentration 7%). The plate was pre-incubated for 10 minutes at 25° C. and the reaction initiated by addition of 15 μL [g-33P]ATP (final concentration 10 μM).
The reaction was stopped after […] by the addition of 30 μL 0.3 M phosphoric acid containing 2 mM ATP. A phosphocellulose filter 96-well plate (Multiscreen HTS MAPHNOB50, Merck-Millipore, Massachusetts, USA) was pretreated with 100 μL 0.1 M phosphoric acid prior to the addition of 45 μL of the stopped assay mixture. The plate was washed with 5×200 μL 0.1 M phosphoric acid. After drying, 50 μL Optiphase ‘SuperMix’ liquid scintillation cocktail (Perkin Elmer, Massachusetts, USA) was added to the well prior to scintillation counting (Wallac 1450 Microbeta Liquid Scintillation Counter, Perkin Elmer, Massachusetts, USA).
After removing mean background values for all of the data points, Ki(app) data were calculated from non-linear regression analysis of the initial rate data using the Prism software package (GraphPad Prism version 6.0c for Macintosh, GraphPad Software Inc., San Diego, USA).
Compounds with a Cisplatin sensitization value of <0.02 μM are marked with “+++.” Compounds with a Ki value >0.02 μM but <0.2 μM are marked with “++.” Compounds with a Ki value >0.2 μM but <5 μM are marked with “+.”

[2] = biological target: ATR kinase (full-length ATR) (Homo sapiens (Human), UniProt Q13535); assay: ATR inhibition assay (radioactive-phosphate incorporation); format: biochemical
Method in brief: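 Radiometric 33P incorporation by 5 nM full-length ATR into 800 μM target peptide with 10 μM [γ-33P]ATP, in 50 mM Tris/HCl pH 7.5, 10 mM MgCl2, 1 mM DTT, 7% DMSO, 25° C. Compound pre-incubated 10 minutes; reaction stopped after 24 hours, captured on phosphocellulose. Ki(app) from non-linear regression of initial rates.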

[3] = Ki(app), 5 nM full-length ATR, 10 μM ATP, 25° C.

ATR kinase (full-length ATR), sequence (Q13535 whole entry): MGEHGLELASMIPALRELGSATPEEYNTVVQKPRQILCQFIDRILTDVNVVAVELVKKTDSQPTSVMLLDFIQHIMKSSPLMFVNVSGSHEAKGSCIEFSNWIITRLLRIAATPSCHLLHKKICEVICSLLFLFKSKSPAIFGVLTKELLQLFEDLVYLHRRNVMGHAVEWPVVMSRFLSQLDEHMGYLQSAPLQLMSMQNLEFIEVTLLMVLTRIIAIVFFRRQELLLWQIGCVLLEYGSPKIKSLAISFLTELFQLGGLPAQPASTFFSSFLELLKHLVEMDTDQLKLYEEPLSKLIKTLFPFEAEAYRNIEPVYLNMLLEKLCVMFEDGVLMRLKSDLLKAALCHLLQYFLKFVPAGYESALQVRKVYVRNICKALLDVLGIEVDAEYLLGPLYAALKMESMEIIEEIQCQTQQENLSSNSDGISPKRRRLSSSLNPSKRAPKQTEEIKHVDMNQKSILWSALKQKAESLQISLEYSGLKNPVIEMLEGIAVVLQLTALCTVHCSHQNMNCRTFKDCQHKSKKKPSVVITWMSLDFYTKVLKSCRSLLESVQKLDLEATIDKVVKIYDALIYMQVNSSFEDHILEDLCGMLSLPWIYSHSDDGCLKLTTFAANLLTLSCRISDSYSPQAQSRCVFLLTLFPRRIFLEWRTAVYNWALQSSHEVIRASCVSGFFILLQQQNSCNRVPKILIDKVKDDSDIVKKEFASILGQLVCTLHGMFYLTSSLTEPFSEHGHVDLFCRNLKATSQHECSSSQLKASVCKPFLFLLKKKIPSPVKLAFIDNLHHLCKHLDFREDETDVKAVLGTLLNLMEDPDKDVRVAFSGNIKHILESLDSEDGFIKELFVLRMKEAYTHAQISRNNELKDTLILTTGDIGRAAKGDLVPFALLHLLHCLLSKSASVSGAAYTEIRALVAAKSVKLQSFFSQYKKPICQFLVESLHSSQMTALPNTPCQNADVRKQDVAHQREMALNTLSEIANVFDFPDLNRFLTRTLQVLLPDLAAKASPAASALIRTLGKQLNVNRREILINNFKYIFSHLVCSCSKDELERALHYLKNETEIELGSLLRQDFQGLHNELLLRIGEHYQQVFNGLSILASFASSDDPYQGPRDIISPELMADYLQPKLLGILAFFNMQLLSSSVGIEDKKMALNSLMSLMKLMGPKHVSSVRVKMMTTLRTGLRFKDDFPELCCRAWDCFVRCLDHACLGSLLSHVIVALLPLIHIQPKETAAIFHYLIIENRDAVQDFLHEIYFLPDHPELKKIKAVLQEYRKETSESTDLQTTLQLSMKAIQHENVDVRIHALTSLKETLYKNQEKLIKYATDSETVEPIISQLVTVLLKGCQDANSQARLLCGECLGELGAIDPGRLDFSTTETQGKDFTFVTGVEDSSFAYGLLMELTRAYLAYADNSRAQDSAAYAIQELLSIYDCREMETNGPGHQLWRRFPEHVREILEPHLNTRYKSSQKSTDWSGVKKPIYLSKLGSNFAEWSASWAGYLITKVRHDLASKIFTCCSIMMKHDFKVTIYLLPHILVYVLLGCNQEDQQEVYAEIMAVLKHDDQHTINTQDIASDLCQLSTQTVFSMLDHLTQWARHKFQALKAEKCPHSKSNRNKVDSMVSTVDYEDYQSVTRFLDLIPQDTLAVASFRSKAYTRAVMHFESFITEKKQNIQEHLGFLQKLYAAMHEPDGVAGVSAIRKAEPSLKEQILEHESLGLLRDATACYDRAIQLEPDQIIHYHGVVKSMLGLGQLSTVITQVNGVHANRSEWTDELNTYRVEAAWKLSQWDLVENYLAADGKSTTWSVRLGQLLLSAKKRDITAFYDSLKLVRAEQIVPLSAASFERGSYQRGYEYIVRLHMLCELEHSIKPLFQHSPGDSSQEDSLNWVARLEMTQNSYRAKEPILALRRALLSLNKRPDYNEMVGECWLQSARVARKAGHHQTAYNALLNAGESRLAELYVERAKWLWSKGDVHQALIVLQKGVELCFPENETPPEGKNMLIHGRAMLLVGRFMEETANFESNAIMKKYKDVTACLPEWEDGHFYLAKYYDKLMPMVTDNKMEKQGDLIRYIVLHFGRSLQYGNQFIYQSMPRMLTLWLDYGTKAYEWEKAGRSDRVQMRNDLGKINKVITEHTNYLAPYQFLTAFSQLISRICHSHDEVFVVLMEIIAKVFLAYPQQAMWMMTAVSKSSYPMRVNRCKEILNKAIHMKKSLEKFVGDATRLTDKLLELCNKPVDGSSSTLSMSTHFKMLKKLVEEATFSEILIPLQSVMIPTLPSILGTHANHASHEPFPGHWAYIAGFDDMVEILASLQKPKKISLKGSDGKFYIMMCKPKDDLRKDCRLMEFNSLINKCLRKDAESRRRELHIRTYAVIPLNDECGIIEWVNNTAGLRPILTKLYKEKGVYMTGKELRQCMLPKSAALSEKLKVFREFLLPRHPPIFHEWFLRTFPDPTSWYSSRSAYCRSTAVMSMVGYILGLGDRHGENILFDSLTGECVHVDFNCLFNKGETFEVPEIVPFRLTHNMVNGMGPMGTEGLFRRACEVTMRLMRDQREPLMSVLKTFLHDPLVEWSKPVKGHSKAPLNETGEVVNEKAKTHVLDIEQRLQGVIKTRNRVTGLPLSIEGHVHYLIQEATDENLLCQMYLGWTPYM
ATR kinase, in the presence of partner proteins ATRIP, CLK2 and TopBP1, sequence (Q13535 whole entry): as above
ATR kinase, in the presence of partner proteins ATRIP, CLK2 and TopBP1, sequence (Q8WXE1 whole entry partner): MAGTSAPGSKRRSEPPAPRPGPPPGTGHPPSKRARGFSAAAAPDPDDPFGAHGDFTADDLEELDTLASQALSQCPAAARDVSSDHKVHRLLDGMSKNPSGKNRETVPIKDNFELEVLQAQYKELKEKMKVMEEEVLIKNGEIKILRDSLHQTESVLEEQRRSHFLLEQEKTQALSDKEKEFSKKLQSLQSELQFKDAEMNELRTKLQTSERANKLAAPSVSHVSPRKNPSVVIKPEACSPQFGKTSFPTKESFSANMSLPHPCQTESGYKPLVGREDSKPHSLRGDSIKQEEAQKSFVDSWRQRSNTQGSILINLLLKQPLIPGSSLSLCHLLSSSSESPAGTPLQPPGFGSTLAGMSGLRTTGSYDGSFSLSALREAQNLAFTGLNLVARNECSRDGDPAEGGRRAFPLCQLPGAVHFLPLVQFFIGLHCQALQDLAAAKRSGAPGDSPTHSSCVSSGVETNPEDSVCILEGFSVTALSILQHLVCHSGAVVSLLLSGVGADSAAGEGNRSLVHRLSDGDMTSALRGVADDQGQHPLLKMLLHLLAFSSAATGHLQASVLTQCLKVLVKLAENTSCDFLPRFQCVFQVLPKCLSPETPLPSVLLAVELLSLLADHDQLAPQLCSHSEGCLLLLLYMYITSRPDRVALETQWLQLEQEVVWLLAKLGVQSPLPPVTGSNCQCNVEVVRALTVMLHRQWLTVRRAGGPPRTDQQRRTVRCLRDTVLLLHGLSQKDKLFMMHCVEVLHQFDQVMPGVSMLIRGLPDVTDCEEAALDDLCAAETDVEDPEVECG

Row | Compound | Ki [1] [nM] | Ki [2, 3] [nM] | Ki [2] [nM]
1 | Nc1nn2cc(F)cnc2c1C(=O)Nc1cncc(F)c1N1CCC(C(=O)N2CCNCC2)CC1 [I-G-12, 2-amino-6-fluoro-N-(5-fluoro-4-(4-(piperazine-1-carbonyl)piperidin-1-yl)pyridin-3-yl)pyrazolo[1,5-a]pyrimidine-3-carboxamide] | < 20 | 10 to 1000 | –
2 | Nc1nn2cc(F)cnc2c1C(=O)Nc1cncc(F)c1N1CCN(C2COC2)CC1 [I-N-13, 2-amino-6-fluoro-N-(5-fluoro-4-(4-(oxetan-3-yl)piperazin-1-yl)pyridin-3-yl)pyrazolo[1,5-a]pyrimidine-3-carboxamide] | < 20 | 10 to 1000 | –
3 | Cc1nnccc1-c1ccncc1NC(=O)c1c(N)nn2cc(F)cnc12 [I-C-31, 2-amino-6-fluoro-N-(4-(3-methylpyridazin-4-yl)pyridin-3-yl)pyrazolo[1,5-a]pyrimidine-3-carboxamide] | < 20 | 10 to 1000 | –
4 | CN1CCN(C(=O)c2ccc(-c3c(F)cncc3NC(=O)c3c(N)nn4cc(F)cnc34)cc2)CC1 [I-C-43, 2-amino-6-fluoro-N-(5-fluoro-4-(4-(4-methylpiperazine-1-carbonyl)phenyl)pyridin-3-yl)pyrazolo[1,5-a]pyrimidine-3-carboxamide] | < 20 | 10 to 1000 | –
5 | Cn1cncc1-c1c(F)cncc1NC(=O)c1c(N)nn2cc(F)cnc12 [I-C-79, 2-amino-6-fluoro-N-(5-fluoro-4-(1-methyl-1H-imidazol-5-yl)pyridin-3-yl)pyrazolo[1,5-a]pyrimidine-3-carboxamide] | < 20 | 10 to 1000 | –
6 | Nc1nn2cc(F)cnc2c1C(=O)Nc1cncc(F)c1N1CCC(C(=O)N2CCN3CCC2CC3)CC1 [I-G-7, N-(4-(4-(1,4-diazabicyclo[3.2.2]nonane-4-carbonyl)piperidin-1-yl)-5-fluoropyridin-3-yl)-2-amino-6-fluoropyrazolo[1,5-a]pyrimidine-3-carboxamide] | < 20 | – | 10 to 1000
7 | CN1CCN(C(=O)C2CCN(c3c(F)cncc3NC(=O)c3c(N)nn4cc(F)cnc34)CC2)CC1 [I-G-4, 2-amino-6-fluoro-N-(5-fluoro-4-(4-(4-methylpiperazine-1-carbonyl)piperidin-1-yl)pyridin-3-yl)pyrazolo[1,5-a]pyrimidine-3-carboxamide] | < 20 | 10 to 1000 | –
8 | Nc1nn2cc(F)cnc2c1C(=O)Nc1cnccc1N1CCN(C2COC2)CC1 [I-N-1, 2-amino-6-fluoro-N-(4-(4-(oxetan-3-yl)piperazin-1-yl)pyridin-3-yl)pyrazolo[1,5-a]pyrimidine-3-carboxamide] | < 20 | 10 to 1000 | –
9 | Nc1nn2cc(F)cnc2c1C(=O)Nc1cncc(F)c1N1CCC(C(=O)N2CCN(C3COC3)CC2)CC1 [I-G-32, 2-amino-6-fluoro-N-[5-fluoro-4-[4-[4-(oxetan-3-yl)piperazine-1-carbonyl]-1-piperidyl]-3-pyridyl]pyrazolo[1,5-a]pyrimidine-3-carboxamide] | < 20 | 10 to 1000 | –
10 | COC1CN(C(=O)C2CCN(c3c(F)cncc3NC(=O)c3c(N)nn4cc(F)cnc34)CC2)C1 [I-G-21, 2-amino-6-fluoro-N-(5-fluoro-4-(4-(3-methoxyazetidine-1-carbonyl)piperidin-1-yl)pyridin-3-yl)pyrazolo[1,5-a]pyrimidine-3-carboxamide] | < 20 | 10 to 1000 | –
11 | CN1CCN(C(=O)c2ccc(-c3ccncc3NC(=O)c3c(N)nn4cc(F)cnc34)cc2)CC1 [I-C-25, 2-amino-6-fluoro-N-(4-(4-(4-methylpiperazine-1-carbonyl)phenyl)pyridin-3-yl)pyrazolo[1,5-a]pyrimidine-3-carboxamide] | < 20 | 10 to 1000 | –
12 | Nc1nn2cc(F)cnc2c1C(=O)Nc1cnccc1N1CCN(C2COC2)C2CC21 (centres unmarked) [I-N-31, 2-amino-6-fluoro-N-(4-(5-(oxetan-3-yl)-2,5-diazabicyclo[4.1.0]heptan-2-yl)pyridin-3-yl)pyrazolo[1,5-a]pyrimidine-3-carboxamide] | – | 1000 to 5000 | –
13 | CN1CCN(c2ccncc2NC(=O)c2c(N)nn3cc(F)cnc23)CC1 [I-N-3, 2-amino-6-fluoro-N-(4-(4-methylpiperazin-1-yl)pyridin-3-yl)pyrazolo[1,5-a]pyrimidine-3-carboxamide] | – | 10 to 1000 | –
14 | N#CCc1cnc2c(C(=O)Nc3cnccc3OC3CN4CCC3CC4)c(N)nn2c1 (racemic) [I-O-22, (R,S)-2-amino-6-(cyanomethyl)-N-(4-(quinuclidin-3-yloxy)pyridin-3-yl)pyrazolo[1,5-a]pyrimidine-3-carboxamide] | – | 10 to 1000 | –
15 | CN(C)CCc1cnn(-c2ccncc2NC(=O)c2c(N)nn3cc(F)cnc23)c1 [I-N-9, 2-amino-N-(4-(4-(2-(dimethylamino)ethyl)-1H-pyrazol-1-yl)pyridin-3-yl)-6-fluoropyrazolo[1,5-a]pyrimidine-3-carboxamide] | – | – | 1000 to 5000

The remaining lines, values ahead:

Row | Ki [1] [nM] | Ki [2, 3] [nM] | Ki [2] [nM] | Compound
16 | < 20 | 10 to 1000 | – | Nc1nn2cc(Cl)cnc2c1C(=O)Nc1cnccc1N1CCN(C2COC2)CC1 [I-N-58, 2-amino-6-chloro-N-(4-(4-(oxetan-3-yl)piperazin-1-yl)pyridin-3-yl)pyrazolo[1,5-a]pyrimidine-3-carboxamide]
17 | < 20 | 10 to 1000 | – | Nc1nn2cc(F)cnc2c1C(=O)Nc1cncc(F)c1N1CCNCC1 [I-N-118, 2-amino-6-fluoro-N-(5-fluoro-4-(piperazin-1-yl)pyridin-3-yl)pyrazolo[1,5-a]pyrimidine-3-carboxamide]
18 | < 20 | 10 to 1000 | – | CN1CCN(S(=O)(=O)C2CCN(c3c(F)cncc3NC(=O)c3c(N)nn4cc(F)cnc34)CC2)CC1 [I-N-166, 2-amino-6-fluoro-N-(5-fluoro-4-(4-((4-methylpiperazin-1-yl)sulfonyl)piperidin-1-yl)pyridin-3-yl)pyrazolo[1,5-a]pyrimidine-3-carboxamide]
19 | < 20 | 10 to 1000 | – | CC(=O)N1CCN(c2c(F)cncc2NC(=O)c2c(N)nn3cc(F)cnc23)CC1 [I-N-275, N-(4-(4-acetylpiperazin-1-yl)-5-fluoropyridin-3-yl)-2-amino-6-fluoropyrazolo[1,5-a]pyrimidine-3-carboxamide]
20 | – | < 10 | – | CCOc1ccncc1NC(=O)c1c(N)nn2cc(CC#N)cnc12 [I-O-28, 2-amino-6-(cyanomethyl)-N-(4-ethoxypyridin-3-yl)pyrazolo[1,5-a]pyrimidine-3-carboxamide]
21 | – | 10 to 1000 | – | N#CCc1cnc2c(C(=O)Nc3cnccc3N3CCNCC3)c(N)nn2c1 [I-N-89, 2-amino-6-(cyanomethyl)-N-(4-(piperazin-1-yl)pyridin-3-yl)pyrazolo[1,5-a]pyrimidine-3-carboxamide]
22 | – | 10 to 1000 | – | CN(C)CCOc1cc(Cl)ncc1NC(=O)c1c(N)nn2cc(Cl)cnc12 [I-O-68, 2-amino-6-chloro-N-(6-chloro-4-(2-(dimethylamino)ethoxy)pyridin-3-yl)pyrazolo[1,5-a]pyrimidine-3-carboxamide]
23 | – | < 10 | – | CN(C)CCOc1ccncc1NC(=O)c1c(N)nn2cc(CC#N)cnc12 [I-O-24, 2-amino-6-(cyanomethyl)-N-(4-(2-(dimethylamino)ethoxy)pyridin-3-yl)pyrazolo[1,5-a]pyrimidine-3-carboxamide]
24 | – | 10 to 1000 | – | Nc1nn2cc(Cl)cnc2c1C(=O)Nc1cnccc1OC1CCCNC1 (centres unmarked) [I-O-75, 2-amino-6-chloro-N-(4-(piperidin-3-yloxy)pyridin-3-yl)pyrazolo[1,5-a]pyrimidine-3-carboxamide]
25 | – | 10 to 1000 | – | CN1CCC[C@@H]1COc1ccncc1NC(=O)c1c(N)nn2cc(Cl)cnc12 [I-O-49, (R)-2-amino-6-chloro-N-(4-((1-methylpyrrolidin-2-yl)methoxy)pyridin-3-yl)pyrazolo[1,5-a]pyrimidine-3-carboxamide]
26 | – | 10 to 1000 | – | Nc1nn2cc(F)cnc2c1C(=O)Nc1cncc(F)c1N1CCN2C(=O)CC[C@@H]2C1 [I-N-182, (R)-2-amino-6-fluoro-N-(5-fluoro-4-(6-oxohexahydropyrrolo[1,2-a]pyrazin-2(1H)-yl)pyridin-3-yl)pyrazolo[1,5-a]pyrimidine-3-carboxamide]
